Some results are limits rather than exact numbers.

Chain of ERRα ligand binding domain (ERRα-LBD) (P11474 193-421): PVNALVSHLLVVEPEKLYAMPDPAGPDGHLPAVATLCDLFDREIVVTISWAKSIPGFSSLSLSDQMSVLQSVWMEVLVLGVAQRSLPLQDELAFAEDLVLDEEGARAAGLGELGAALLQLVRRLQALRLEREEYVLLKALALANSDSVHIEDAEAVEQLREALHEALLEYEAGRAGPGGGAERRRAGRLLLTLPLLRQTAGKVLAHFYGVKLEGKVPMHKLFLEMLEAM

The first assay addresses ERRα ligand binding domain (ERRα-LBD) (Homo sapiens (Human), UniProt P11474). Nature of the assay: ERRα AlphaScreen Assay. The assay is classed as biochemical. Particulars: disruption of binding of ERRα-LBD protein to biotin-PGC1α-3 co-activator peptide. From the text: This assay was based on the knowledge that nuclear receptors interact with cofactors in a ligand dependent matter. The sites of interaction have been mapped to LXXLL motifs that are present in the co-activator sequences. Short peptide sequences that contain the LXXLL motif mimic the behavior of full length co-activators.
The ERRα AlphaScreen Assay described here relies on the interaction of the co-activator peptide with purified bacterial-expressed ERRα ligand binding domain (ERRα-LBD); upon ligand binding the ERRα protein can undergo a conformational change resulting in a loss of co-activator binding.
Compounds of the present invention were tested for their ability to disrupt binding of ERRα-LBD protein to co-activator peptide using AlphaScreen® Technology (Perkin Elmer). ERRα-LBD protein was expressed in E. coli as a 6×His Small Ubiquitin-like Modifier (SUMO) fusion. Bacterial expressed 6His-SUMO-ERRα-LBD protein was purified using affinity chromatography. All experiments were performed at room temperature in 384-well white non-binding plates (Greiner) using 50 mM Tris-HCl pH 7.5, 100 mM NaCl, 0,1% Pluronic F-127, 0.05% BSA and 5 mM TCEP as the buffer. Final DMSO concentration was 1% in the assay. Compounds were assayed in triplicate and: incubated with 0.81 nM ERRα-LBD protein and 10 μg/mL streptavidin donor beads and 10 μg/mL Ni-chelate acceptor beads for 1 hour at room temperature; followed by a 2-hour incubation with 15 nM biotin-PGC1α-3 peptide (QRRPCSELLKYLTTNDDPP) corresponding to amino acids 202 to 220.
The AlphaScreen signal was measured using an Envision Xcite plate reader (Perkin Elmer). Data was normalized, and curve fitting analysis was performed in GraphPad Prism 7 using a four-parameter dose-response fit.
As multiple IC50 values were annotated for the same compound-protein pair, a mean pIC50 for each compound was determined.
A general note: In Alpha technology, singlet oxygen from a donor bead excites a nearby acceptor bead.
In the case of `COc1cc(C2CC(=O)Nc3n[nH]cc32)ccc1OCc1ccc(C(C)=O)cc1C(F)(F)F` (stereo not shown) [Example 41, 4-(4-{[4-acetyl-2-(trifluoromethyl)phenyl]methoxy}-3-methoxyphenyl)-2H,4H,5H,6H, 7H-pyrazolo[3,4-b]pyridin-6-one], the “mean pIC50” value is reported as at least 8.

As for `COc1cc(C2CC(=O)Nc3n[nH]cc32)ccc1COc1ccc(C)cc1C` (single isomer, unassigned; (-)) [Example 220, (−)-4-{4-[(2,4-dimethylphenoxy)methyl]-3-methoxyphenyl}-2H,4H,5H,6H,7H-pyrazolo[3,4-b]pyridin-6-one], the “mean pIC50” value was at least 8. In the case of `COc1cc(-c2cc(=O)[nH]c3n[nH]cc23)ccc1OCc1ccccc1OC(F)F` [Example 180, 4-(4-{[2-(difluoromethoxy)phenyl]methoxy}-3-methoxyphenyl)-2H,6H, 7H-pyrazolo[3,4-b]pyridin-6-one], the “mean pIC50” value is at least 8. Still for that read-out and setting: next, `COC(=O)c1ccc(COc2ccc(C3CC(=O)Nc4n[nH]cc43)cc2OC)c(C(F)(F)F)c1` (stereo not shown) [Example 42, methyl 4-[(2-methoxy-4-{6-oxo-2H,4H,5H,6H,7H-pyrazolo[3,4-b]pyridin-4-yl}phenoxy)methyl]-3-(trifluoromethyl)benzoate]: at least 8.

Still in this assay, the particulars now being: disruption of binding of ERRα-LBD protein to biotin-PGC1α-3 co-activator peptide; read-out: mean pIC50 (converted).
For the molecule `O=C1CC(c2cnc(OCc3ccccc3C(F)(F)F)nc2)c2c[nH]nc2N1` (stereo not shown) [Example 165, 4-(2-{[2-(trifluoromethyl)phenyl]methoxy}pyrimidin-5-yl)-2H,4H,5H,6H, 7H-pyrazolo[3,4-b]pyridin-6-one], the IC50 is 100 to 1000 nM. Regarding `COc1cc(C2CC(=O)Nc3n[nH]cc32)ccc1OCc1ccc(C(N)=O)cc1C(F)(F)F` (stereo not shown) [Example 121, 4-(2-methoxy-4-{6-oxo-2H,4H,5H,6H, 7H-pyrazolo[3,4-b]pyridin-4-yl}phenoxymethyl)-3-(trifluoromethyl)benzamide], the IC50 is 100 to 1000 nM. Regarding `COc1cc(C2CC(=O)Nc3n[nH]cc32)ccc1OCc1ccccc1OC(F)F` (stereo not shown) [Example 17, 4-(4-{[2-(difluoromethoxy)phenyl]methoxy}-3-methoxyphenyl)-2H,4H,5H,6H,7H-pyrazolo[3,4-b]pyridin-6-one], the IC50 was 10 to 100 nM. For the molecule `COc1cc(OCc2ccccc2C(F)(F)F)ccc1C1CC(=O)Nc2n[nH]cc21` (stereo not shown) [Example 64, 4-(2-methoxy-4-{[2-(trifluoromethyl)phenyl]methoxy}phenyl)-2H,4H,5H,6H,7H-pyrazolo[3,4-b]pyridin-6-one], the IC50 was 10 to 100 nM. Consider `O=C1CC(c2ccc(COc3ccc(C(F)(F)F)cc3C(F)(F)F)c(OC(F)(F)F)c2)c2c[nH]nc2N1` (stereo not shown) [Example 109, 4-(4-{[2,4-bis(trifluoromethyl)phenoxy]methyl}-3-(trifluoromethoxy)phenyl)-2H,4H,5H,6H,7H-pyrazolo[3,4-b]pyridin-6-one], for which the IC50 was 10 to 100 nM.

Regarding `COc1cc(C2CC(=O)Nc3n[nH]cc32)ccc1OCc1ccccc1C(=O)OC(C)C` (stereo not shown) [Example 127, propan-2-yl 2-(2-methoxy-4-{6-oxo-2H,4H,5H,6H,7H-pyrazolo[3,4-b]pyridin-4-yl}phenoxymethyl)benzoate], the IC50 is 100 to 1000 nM. Turning to `CCCCOC(=O)c1ccccc1COc1ccc(C2CC(=O)Nc3n[nH]cc32)cc1OC` (stereo not shown) [Example 126, butyl 2-(2-methoxy-4-{6-oxo-2H,4H,5H,6H,7H-pyrazolo[3,4-b]pyridin-4-yl}phenoxymethyl)benzoate], the IC50 was 100 to 1000 nM. For the molecule `CCc1cc(C2CC(=O)Nc3n[nH]cc32)ccc1OCc1ccccc1C(F)(F)F` (stereo not shown) [Example 71, 4-(3-ethyl-4-{[2-(trifluoromethyl)phenyl]methoxy}phenyl)-2H,4H,5H,6H,7H-pyrazolo[3,4-b]pyridin-6-one], the IC50 was 10 to 100 nM. In the case of `COc1cc(C2CC(=O)Nc3n[nH]cc32)ccc1OCc1ccccc1[N+](=O)[O-]` (stereo not shown) [Example 18, 4-{3-methoxy-4-[(2-nitrophenyl)methoxy]phenyl}-2H,4H,5H,6H, 7H-pyrazolo[3,4-b]pyridin-6-one], the IC50 is 100 to 1000 nM. In the case of `COc1cc(C2CC(=O)N(C)c3n[nH]cc32)ccc1OCc1ccccc1C(F)(F)F` (stereo not shown) [Example 86, 4-(3-methoxy-4-{[2-(trifluoromethyl)phenyl]methoxy}phenyl)-7-methyl-2H,4H,5H,6H,7H-pyrazolo[3,4-b]pyridin-6-one], the IC50 is 100 to 1000 nM. For the molecule `COc1cc(C2CC(=O)Nc3n[nH]cc32)ccc1COc1cc(C)cc(C(F)(F)F)c1` (stereo not shown) [Example 114, 4-(3-methoxy-4-{[3-methyl-5-(trifluoromethyl)phenoxy]methyl}phenyl)-2H,4H,5H,6H,7H-pyrazolo[3,4-b]pyridin-6-one], the IC50 was 100 to 1000 nM. On the same count and under the same terms, next, `COc1cc(C2CC(=O)Nc3n[nH]cc32)ccc1OCc1cccc2c1OCCCO2` (stereo not shown) [Example 51, 4-{4-[(3,4-dihydro-2H-1,5-benzodioxepin-6-yl)methoxy]-3-methoxyphenyl}-2H,4H,5H, 6H, 7H-pyrazolo[3,4-b]pyridin-6-one]: 100 to 1000 nM; `COc1cc(C2CC(=O)Nc3n[nH]cc32)ccc1OCc1ccc(NC(C)=O)cc1C(F)(F)F` (stereo not shown) [Example 139, N-{4-[(2-methoxy-4-{6-oxo-2H,4H,5H,6H,7H-pyrazolo[3,4-b]pyridin-4-yl}phenoxy)methyl]-3-(trifluoromethyl)phenyl}acetamide]: 10 to 100 nM.

With `COc1cc(-c2cc(=O)[nH]c3n[nH]cc23)ccc1OCc1ccncc1C(F)(F)F` [Example 172, 4-(3-methoxy-4-{[3-(trifluoromethyl)pyridin-4-yl]methoxy}phenyl)-2H,6H, 7H-pyrazolo[3,4-b]pyridin-6-one], the IC50 was 100 to 1000 nM. `COc1cc(C2CC(=O)Nc3n[nH]cc32)ccc1COc1cc(C(F)F)cc(C(F)(F)F)c1` (stereo not shown) [Example 118, 4-(4-{[3-(difluoromethyl)-5-(trifluoromethyl)phenoxy]methyl}-3-methoxyphenyl)-2H,4H,5H,6H,7H-pyrazolo[3,4-b]pyridin-6-one]: the IC50 is 100 to 1000 nM. As for `O=C1CC(c2ccc(COc3ccccc3C(F)(F)F)c(OC(F)(F)F)c2)c2c[nH]nc2N1` (stereo not shown) [Example 108, 4-[3-(trifluoromethoxy)-4-{[2-(trifluoromethyl)phenoxy]methyl}phenyl]-2H,4H,5H,6H,7H-pyrazolo[3,4-b]pyridin-6-one], the IC50 is 10 to 100 nM. For the molecule `COc1cc(C2CC(=O)Nc3n[nH]cc32)ccc1COc1ccc(C(F)F)cc1C(F)F` (single isomer, unassigned; (+)) [Example 217, (+)-4-(4-{[2,4-bis(difluoromethyl)phenoxy]methyl}-3-methoxyphenyl)-2H,4H,5H,6H,7H-pyrazolo[3,4-b]pyridin-6-one], the IC50 is 100 to 1000 nM.

As to `COC(=O)Cc1ccc(COc2ccc(C3CC(=O)Nc4n[nH]cc43)cc2OC)c(C(F)(F)F)c1` (stereo not shown) [Example 148, methyl 2-[4-(2-methoxy-4-{6-oxo-2H,4H,5H,6H,7H-pyrazolo[3,4-b]pyridin-4-yl}phenoxymethyl)-3-(trifluoromethyl)phenyl]acetate], the IC50 was 100 to 1000 nM. Regarding `COc1cc(C2CC(=O)Nc3n[nH]cc32)ccc1COc1ccc(C(F)(F)F)cc1C(F)F` (single isomer, unassigned; (-)) [Example 216, (−)-4-(4-{[2-(difluoromethyl)-4-(trifluoromethyl)phenoxy]methyl}-3-methoxyphenyl)-2H,4H,5H,6H,7H-pyrazolo[3,4-b]pyridin-6-one], the IC50 was 10 to 100 nM. `COc1cc(C2CC(=O)Nc3n[nH]cc32)ccc1OCc1ccc(N)cc1C(F)(F)F` (single isomer, unassigned; (+)) [Example 203, (+)-4-(4-{[4-amino-2-(trifluoromethyl)phenyl]methoxy}-3-methoxyphenyl)-2H,4H,5H,6H,7H-pyrazolo[3,4-b]pyridin-6-one]: the IC50 is 10 to 100 nM. Turning to `COc1ccccc1COc1ccc(C2CC(=O)Nc3n[nH]cc32)cc1OC` (stereo not shown) [Example 30, 4-{3-methoxy-4-[(2-methoxyphenyl)methoxy]phenyl}-2H,4H,5H,6H,7H-pyrazolo[3,4-b]pyridin-6-one], the IC50 was 100 to 1000 nM.

On to `C#Cc1ccccc1COc1ccc(C2CC(=O)Nc3n[nH]cc32)cc1OC` (stereo not shown) [Example 44, 4-{4-[(2-ethynylphenyl)methoxy]-3-methoxyphenyl}-2H,4H,5H,6H,7H-pyrazolo[3,4-b]pyridin-6-one], for which the IC50 was 10 to 100 nM. The same measure, in the same setting: next, `COc1cc(C2CC(=O)Nc3n[nH]cc32)ccc1OCc1ccc(O)cc1C(F)(F)F` (single isomer, unassigned; (+)) [Example 209, (+)-4-(4-{[4-hydroxy-2-(trifluoromethyl)phenyl]methoxy}-3-methoxyphenyl)-2H,4H,5H,6H,7H-pyrazolo[3,4-b]pyridin-6-one]: 10 to 100 nM.

Turning to `COc1cc(C2CC(=O)Nc3n[nH]cc32)ccc1OCc1cccc(Br)c1` (stereo not shown) [Example 11, 4-{4-[(3-bromophenyl)methoxy]-3-methoxyphenyl}-2H,4H,5H,6H, 7H-pyrazolo[3,4-b]pyridin-6-one], the IC50 was 100 to 1000 nM.

For the origin of these results see patent publication US12527774B2, “Estrogen-related receptor alpha modulators” (LEAD PHARMA HOLDING B.V., priority 2019, dated 2026).
